The text below walks through data of patent publication US8481524B2, “c-MET protein kinase inhibitors” (Vertex Pharmaceuticals Incorporated, priority 2007, dated 2013).

pIC50: −log10 of the molar value. “Also recorded” adds a separate entry of the source.

The test system of this test is c-Met in Snu5 gastric carcinoma cells. Kind of test: Inhibition of c-Met activity in Snu5 gastric carcinoma cells (Snu5-AP1-Luc-Pest luciferase signal). Type of test: cell-based, human. The following applies: for pIC50: Homo sapiens, SNU-5, Snu5-AP1-Luc-Pest cells, 6 hours, Steady Glo luminescence; for activity compared with corresponding analog wherein R5 is hydrogen: Snu5 gastric carcinoma cell assay, comparison of IC50 values. The source says:
Compounds of the invention were also screened for their ability to inhibit the Luciferase-induced signal in an engineered Snu5 cell line. Snu5 [obtained from American Type Culture Collection (Catalog number CRL-5973)] is a human gastric carcinoma known to overexpress c-Met, which is constitutively active. The cell line was transduced with the retrovirus, pCLPCX, which contains a genetic construct consisting of 6×AP1 promoter response elements and a luciferase gene having a C-terminal PEST sequence (proteolytic signal from mouse ornithine decarboxylase, which reduces the half-life of the luciferase). The constitutively active cMet activates cellular pathways (principally MAP kinase), resulting in AP-1-induced transcription of luciferase-PEST and translation into the final product, the activity of which is quantifiable as a chemiluminescent readout upon the addition of luciferin (Steady-Glo from Promega.). Residual luminescence is strongly correlated to the inhibition of c-Met. A stable cell line was obtained by selecting the new cell line (Snu5-AP1-Luc-Pest) with puromycin. The cells were grown in complete media [Iscove's media (Invitrogen) containing 10% fetal bovine serum (FBS, Hyclone) and penicillin/gentamycin (Invitrogen)]. Compounds of the invention were dissolved in DMSO to make 10 mM initial stock solutions. Serial dilutions in DMSO were then made and transferred to complete medium to make a 10× solution. The Snu5-AP1-Luc-Pest cells were counted and diluted to 200,000-cells/mL solution. The cells (90 μL) were added to each well in a 96-well black with clear bottom plate (Costar). Then 10 μL of the 10× compound solution was added to the cells in triplicate. The plates were incubated in a 37° C./5% CO2 incubator. After 6 hours, 50 μL of the Steady Glo reagent (Promega) was added to each well and placed on a plate shaker for 5 minutes to ensure that the cells were completely lysed. The plate was read on a 1450 Microbeta Liquid Scintillation and Luminescence Counter (Perkin-Elmer). The IC50s were calculated using a 4-parameter fit using the graphing software Prism (GraphPad).

Turning to `Cc1ccc(-n2nnnc2-c2cc(-c3cnn([C@@H]4CCNC4)c3)cnc2N)c(F)c1F` [Compound 1], the pIC50 (in general, the negative decadic logarithm of the IC50, by convention in mol/L) was 6.00 to 7.00 and the “activity compared with corresponding analog wherein R5 is hydrogen” value is on record as “more active”.

For the molecule `Cc1ccc(-n2nnnc2-c2cc(-c3cnn([C@@H]4CCCNC4)c3)cnc2N)c(F)c1F` [Compound 2], the pIC50 is at least 7.00 and the “activity compared with corresponding analog wherein R5 is hydrogen” value is “more active”.

On to `Cc1ccc(-n2nnnc2-c2cc(-c3cnn(C4CCCNCC4)c3)cnc2N)c(F)c1F` (stereo not drawn) [Compound 3], for which the pIC50 was at least 7.00 and the “activity compared with corresponding analog wherein R5 is hydrogen” value was “more active”.

Regarding `COc1ccc(-n2nnnc2-c2cc(-c3cnn([C@@H]4CCNC4)c3)cnc2N)c(F)c1F` [Compound 4], the pIC50 is at least 7.00 and the “activity compared with corresponding analog wherein R5 is hydrogen” value is listed as “more active”.

In the case of `Cc1ccc(-n2nnnc2-c2cc(-c3cnn([C@H]4CCCNC4)c3)cnc2N)c(F)c1F` [Compound 5], the pIC50 is at least 7.00 and the “activity compared with corresponding analog wherein R5 is hydrogen” value is listed as “more active”.

As for `COc1ccc(-n2nnnc2-c2cc(-c3cnn([C@H]4CCNC4)c3)cnc2N)c(F)c1F` [Compound 6], the pIC50 was at least 7.00 and the “activity compared with corresponding analog wherein R5 is hydrogen” value was “more active”.

In the case of `Cc1ccc(-n2nnnc2-c2cc(-c3cnn([C@H]4CCNC4)c3)cnc2N)c(F)c1F` [Compound 7], the pIC50 was 6.00 to 7.00 and the “activity compared with corresponding analog wherein R5 is hydrogen” value is reported as “more active”.

With `COc1ccc(-n2nnnc2-c2cc(-c3cnn([C@@H]4CCCNC4)c3)cnc2N)c(F)c1F` [Compound 8, 3-(1-(2,3-Difluoro-4-methoxyphenyl)-1H-tetrazol-5-yl)-5-(1-((R)-piperidin-3-yl)-1H-pyrazol-4-yl)pyridin-2-amine], the pIC50 was at least 7.00 and the “activity compared with corresponding analog wherein R5 is hydrogen” value is given as “more active”.

Molecule `COc1ccc(-n2nnnc2-c2cc(-c3cnn(C4CCCNCC4)c3)cnc2N)c(F)c1F` (stereo not drawn) [Compound 9] gave a pIC50 of 6.00 to 7.00.

For the molecule `COc1ccc(-n2nnnc2-c2cc(-c3cnn([C@H]4CCCNC4)c3)cnc2N)c(F)c1F` [Compound 10], the pIC50 was at least 7.00 and the “activity compared with corresponding analog wherein R5 is hydrogen” value is listed as “more active”.

As to `Cc1ccc(-n2nnnc2-c2cc(-c3cnn(C4CCNCC4)c3)cnc2N)c(F)c1F` [Compound 11, 3-(1-(2,3-Difluoro-4-methylphenyl)-1H-tetrazol-5-yl)-5-(1-(piperidin-4-yl)-1H-pyrazol-4-yl)pyridin-2-amine], the pIC50 was 6.00 to 7.00 and the “activity compared with corresponding analog wherein R5 is hydrogen” value was “more active”.

With `COc1ccc(-n2nnnc2-c2cc(-c3cnn(C4CCNCC4)c3)cnc2N)c(F)c1F` [Compound 12, 3-(1-(2,3-difluoro-4-methoxyphenyl)-1H-tetrazol-5-yl)-5-(1-(piperidin-4-yl)-1H-pyrazol-4-yl)pyridin-2-amine], the pIC50 is 6.00 to 7.00 and the “activity compared with corresponding analog wherein R5 is hydrogen” value was “more active”.

On to `Cc1ccc(-n2nnnc2-c2cc(-c3cc4c(s3)CCNCC4)cnc2N)c(F)c1F` [Compound 13, 3-(1-(2,3-Difluoro-4-methylphenyl)-1H-tetrazol-5-yl)-5-(5,6,7,8-tetrahydro-4H-thieno[2,3-d]azepin-2-yl)pyridin-2-amine], for which the pIC50 is at least 7.00 and the “activity compared with corresponding analog wherein R5 is hydrogen” value is given as “more active”.

As to `COc1ccc(-n2nnnc2-c2cc(-c3cc4c(s3)CCNCC4C)cnc2N)c(F)c1F` (stereo not drawn) [Compound 14], the pIC50 is at least 7.00 and the “activity compared with corresponding analog wherein R5 is hydrogen” value is reported as “more active”.

Turning to `COc1ccc(-n2nnnc2-c2cc(-c3cc4c(s3)CCNCC4)cnc2N)c(F)c1F` [Compound 15], the pIC50 is at least 7.00 and the “activity compared with corresponding analog wherein R5 is hydrogen” value is listed as “more active”.

Turning to `COc1ccc(-n2nnnc2-c2cc(-c3cnn(C4CC5CCC(C4)N5)c3)cnc2N)c(F)c1F` (stereo not drawn) [Compound 16], the pIC50 is at least 7.00 and the “activity compared with corresponding analog wherein R5 is hydrogen” value is “more active”.

As for `COc1ccc(-n2nnnc2-c2cc(-c3cnn(C4CC5CCC(C4)N5)c3)cnc2N)c(F)c1F` (stereo not drawn) [Compound 17], the “activity compared with corresponding analog wherein R5 is hydrogen” value is reported as “more active”.

As for `COc1ccc(-n2nnnc2-c2cc(-c3cn(C4CCNCC4)nc3C)cnc2N)c(F)c1F` [Compound 18], the pIC50 was at least 7.00 and the “activity compared with corresponding analog wherein R5 is hydrogen” value is listed as “more active”.

For the molecule `CCC1Cc2sc(-c3cnc(N)c(-c4nnnn4-c4ccc(OC)c(F)c4F)c3)cc2CCN1` (stereo not drawn) [Compound 19], the pIC50 is at least 7.00 and the “activity compared with corresponding analog wherein R5 is hydrogen” value is listed as “more active”.

For the molecule `COc1ccc(-n2nnnc2-c2cc(-c3cc4c(s3)CNCCC4)cnc2N)c(F)c1F` [Compound 20], the pIC50 is 6.00 to 7.00.

Turning to `COc1ccc(-n2nnnc2-c2cc(-c3cc4c(s3)CCCNC4)cnc2N)c(F)c1F` [Compound 21], the pIC50 is 6.00 to 7.00 and the “activity compared with corresponding analog wherein R5 is hydrogen” value is “more active”.

Turning to `COc1ccc(-n2nnnc2-c2cc(-c3cc(C)c(C4CCNCC4)s3)cnc2N)c(F)c1F` [Compound 22, 3-(1-(2,3-Difluoro-4-methoxyphenyl)-1H-tetrazol-5-yl)-5-(4-methyl-5-(piperidin-4-yl)thiophen-2-yl)pyridin-2-amine], the pIC50 was at least 7.00 and the “activity compared with corresponding analog wherein R5 is hydrogen” value is listed as “more active”.

On to `CCCOc1ccc(-n2nnnc2-c2cc(-c3cc4c(s3)CCNCC4)cnc2N)c(F)c1F` [Compound 23], for which the pIC50 was at least 7.00.

Turning to `Cc1cc(-c2cnc(N)c(-c3nnnn3-c3ccc(C)c(F)c3F)c2)sc1C1CCNCC1` [Compound 24], the pIC50 was at least 7.00 and the “activity compared with corresponding analog wherein R5 is hydrogen” value was “more active”.

For the molecule `CCOc1ccc(-n2nnnc2-c2cc(-c3cnn(C4CCNCC4)c3)cnc2N)c(F)c1F` [Compound 25], the pIC50 is at least 7.00.

Turning to `CC(C)Oc1ccc(-n2nnnc2-c2cc(-c3cnn(C4CCNCC4)c3)cnc2N)c(F)c1F` [Compound 26], the pIC50 was at least 7.00.

As to `COc1ccc(-n2nnnc2-c2cc(-c3cc4c(s3)CCNC(C)C4)cnc2N)c(F)c1F` (stereo not drawn) [Compound 27], the negative logarithm of the IC50 (pIC50) is at least 7.00 and the “activity compared with corresponding analog wherein R5 is hydrogen” value is given as “more active”.

Turning to `Cc1ccc(-n2nnnc2-c2cc(-c3cc4c(s3)CCNC(C)C4)cnc2N)c(F)c1F` (stereo not drawn) [Compound 28], the pIC50 was at least 7.00 and the “activity compared with corresponding analog wherein R5 is hydrogen” value was “more active”.

In the case of `COc1ccc(-n2nnnc2-c2cc(-c3cc4c(s3)CCNCC4(C)C)cnc2N)c(F)c1F` [Compound 29], the pIC50 is at least 7.00 and the “activity compared with corresponding analog wherein R5 is hydrogen” value is on record as “more active”.

In the case of `Cc1ccc(-n2nnnc2-c2cc(-c3cc4c(s3)CCNCC4(C)C)cnc2N)c(F)c1F` [Compound 30], the pIC50 was at least 7.00 and the “activity compared with corresponding analog wherein R5 is hydrogen” value is “more active”.

With `Cc1cc(C2CCNCC2)sc1-c1cnc(N)c(-c2nnnn2-c2ccc(C)c(F)c2F)c1` [Compound 31], the pIC50 is 6.00 to 7.00 and the “activity compared with corresponding analog wherein R5 is hydrogen” value is “more active; also recorded: the unsubstituted compound has a lower IC50 value”.

For the molecule `COc1ccc(-n2nnnc2-c2cc(-c3sc(C4CCNCC4)cc3C)cnc2N)c(F)c1F` [Compound 32], the pIC50 was at least 7.00 and the “activity compared with corresponding analog wherein R5 is hydrogen” value is “more active”.

Turning to `CC(C)Oc1ccc(-n2nnnc2-c2cc(-c3cc4c(s3)CCNCC4)cnc2N)c(F)c1F` [Compound 33], the pIC50 is at least 7.00.

Take `CCCOc1ccc(-n2nnnc2-c2cc(-c3cnn(C4CCNCC4)c3)cnc2N)c(F)c1F` [Compound 34]: the pIC50 was at least 7.00.

For the molecule `COCCOc1ccc(-n2nnnc2-c2cc(-c3cnn(C4CCNCC4)c3)cnc2N)c(F)c1F` [Compound 35], the pIC50 is 6.00 to 7.00.

With `COc1ccc(-n2nnnc2-c2cc(-c3cn(C4CCNCC4)nc3C(F)(F)F)cnc2N)c(F)c1F` [Compound 36], the pIC50 was at least 7.00 and the “activity compared with corresponding analog wherein R5 is hydrogen” value is recorded as “more active”.

`COc1cc(F)c(-n2nnnc2-c2cc(-c3cnn(C4CCNCC4)c3)cnc2N)c(F)c1` [Compound 37]: the pIC50 is at least 7.00.

For the molecule `Cc1ccc(-n2nnnc2-c2cc(-c3cnn(C4CCNCC4)c3)cnc2N)c(Cl)c1` [Compound 38], the pIC50 was 6.00 to 7.00.

Consider `Cc1ccc(-n2nnnc2-c2cc(-c3cc4c(s3)CCNCC4)cnc2N)c(Cl)c1` [Compound 39], for which the pIC50 was 6.00 to 7.00.

In turn, `Cc1ccc(-n2nnnc2-c2cc(-c3cnn(C4CCNCC4)c3)cnc2N)cc1Cl` [Compound 40] had a pIC50 below 6.00.

Take `Cc1ccc(-n2nnnc2-c2cc(-c3cnn(C4CCNCC4)c3)cnc2N)c(F)c1` [Compound 41]: the pIC50 was 6.00 to 7.00.

`Cc1ccc(-n2nnnc2-c2cc(-c3cc4c(s3)CCNCC4)cnc2N)c(F)c1` [Compound 42] had a pIC50 of 6.00 to 7.00.
